What was measured:
[1] = system: HIV-1 strains, for e.g., 92HT599; assay: Antiviral activity: p24 estimation in HIV-1 infected MT-2 cells; format: cell-based; details: Human immunodeficiency virus 1, MT2, MT-2 cells; for inhibition at 0.01 µM / inhibition at 0.1 µM / inhibition at 1 µM: p24, ~96 hours; for IC50: p24, read-out: Antiviral activity IC50
Protocol: MT-2 cells were infected with required number of TCID50's of HIV-1 strains, for e.g., 92HT599. The infected cells were plated at the concentration of 30,000 cells per well in a 96 well plate. Test compound was added to the 96 well plate with the final concentration of DMSO (vehicle—not more than 1%). The plates are then incubated in a CO2 incubator for ˜96 hours (˜4 days) for viral infection. At the end of incubation period an aliquot from each well was taken for p24 estimation. The quantitation of p24 is an estimated index for antiviral activity of the compound. Percent inhibition was calculated with reference to control values (vehicle controls).
p-24 estimation was carried out using Advance biosciences kit as per the procedure detailed by supplier.

[2] = Cyto-toxicity, MTT assay; format: cell-based; details: read-out: Cytotoxicity % viability
Protocol: On day 1 calculate the number of cells required for the assay and seed 3×10^4 cells in 200 μl per well. Weigh the compound and dissolve it in DMSO to get 10 mM stock which is further diluted to 3 mM and 1 mM. The drugs from these stocks were added to plate to get final concentration of 100 μM, 30 μM and 10 μM. […] Incubate for 4 days in 5% CO2 incubator at 37° C. On day 4, 100 μl of medium was removed from each well without disturbing the cells. Add 10 μl of MTT reagent and incubate for 4 hours at 5% CO2 incubator at 37° C. for formation of crystals. Add 200 μl of 0.1N acidic isopropanol to dissolve the crystals and read the plate at 590 nm.

[3] = Single dose oral pharmacokinetic study; design: species or system mice; details: mouse, in vivo, po, 30 mg/kg
Protocol: The test item was administered through oral route to animals (rat/mice) at 30 mg/kg dose in a suitable vehicle at 10 ml/kg dose volume. Blood samples (˜50 uL at each time point) were collected from retro-orbital plexus using K3 EDTA as anticoagulant in eppendorf tubes at defined time intervals under light ether anesthesia. The samples were centrifuged at 3500×g to separate plasma and stored at −80° C. until analysis.
Sample analysis: Test samples were analyzed using LC-MS-MS after developing fit-for-purpose method for each of test compound.

For C=C(C)[C@@H]1CC[C@]2(C(=O)N3CCC[C@H]3c3nc(-c4cccc(F)c4)cn3CCN(C)C)CC[C@]3(C)[C@H](CC[C@@H]4[C@@]5(C)CC[C@H](OC(=O)[C@H]6C[C@@H](C(=O)O)C6(C)C)C(C)(C)[C@@H]5CC[C@]43C)[C@@H]12 [Compound 12, (1R,3S)-3-((((1R,3aS,5aR,5bR,7aR,9S,11aR,11bR,13aR,13bR)-3a-((S)-2-(1-(2-(dimethylamino)ethyl)-4-(3-fluorophenyl)-1H-imidazol-2-yl)pyrrolidine-1-carbonyl)-5a,5b,8,8,11a-pentamethyl-1-(prop-1-en-2-yl)icosahydro-1H-cyclopenta[a]chrysen-9-yl)oxy)carbonyl)-2,2-dimethyl cyclobutane-1-carboxylic acid], the inhibition at 0.01 µM [1] was 24%, the inhibition at 0.1 µM [1] was 44% and the inhibition at 1 µM [1] was 99%. The viability at 4 days, 10 µM [2] was 42%, the viability at 4 days, 30 µM [2] was 31% and the viability at 4 days, 100 µM [2] was 5%.
Work on C=C(C)[C@@H]1CC[C@]2(C(=O)N3CCC[C@H]3c3nc(-c4ccccc4)cn3CCP(=O)(O)O)CC[C@]3(C)[C@H](CC[C@@H]4[C@@]5(C)CC[C@H](OC(=O)[C@H]6C[C@@H](C(=O)O)C6(C)C)C(C)(C)[C@@H]5CC[C@]43C)[C@@H]12 [Compound 23, (1R,3S)-2,2-dimethyl-3-((((1R,3aS,5aR,5bR,7aR,9S,11aR,11bR,13aR,13bR)-5a,5b,8,8,11a-pentamethyl-3a-((S)-2-(4-phenyl-1-(2-phosphonoethyl)-1H-imidazol-2-yl)pyrrolidine-1-carbonyl)-1-(prop-1-en-2-yl)icosahydro-1H-cyclopenta[a]chrysen-9-yl)oxy)carbonyl)cyclo butane-1-carboxylic acid] yielded an inhibition at 0.01 µM [1] of 24%, an inhibition at 0.1 µM [1] of 21% and an inhibition at 1 µM [1] of 66%. For the same molecule, the viability at 4 days, 10 µM [2] was 88%, the viability at 4 days, 30 µM [2] was 77% and the viability at 4 days, 100 µM [2] was 66%.
C=C(C)[C@@H]1CC[C@]2(C(=O)N3C[C@H](OCCOC)C[C@H]3c3nc(-c4ccccc4)cn3CCC(C)C)CC[C@]3(C)[C@H](CC[C@@H]4[C@@]5(C)CC[C@H](OC(=O)[C@H]6C[C@@H](C(=O)O)C6(C)C)C(C)(C)[C@@H]5CC[C@]43C)[C@@H]12 [Compound 26, (1R,3S)-3-((((1R,3aS,5aR,5bR,7aR,9S,11aR,11bR,13aR,13bR)-3a-((2S,4R)-2-(1-isopentyl-4-phenyl-1H-imidazol-2-yl)-4-(2-methoxyethoxy)pyrrolidine-1-carbonyl)-5a,5b,8,8,11a-pentamethyl-1-(prop-1-en-2-yl)icosahydro-1H-cyclopenta[a]chrysen-9-yl)oxy)carbonyl)-2,2-dimethylcyclobutane-1-carboxylic acid] gave an inhibition at 0.01 µM [1] of 0%, an inhibition at 0.1 µM [1] of 15% and an inhibition at 1 µM [1] of 99%. The viability at 4 days, 10 µM [2] was 77%, the viability at 4 days, 30 µM [2] was 54% and the viability at 4 days, 100 µM [2] was 9%.
With C=C(C)[C@@H]1CC[C@]2(C(=O)N3C[C@H](OCCOC)C[C@H]3c3nc(-c4ccccc4)cn3CCN3CCCC3)CC[C@]3(C)[C@H](CC[C@@H]4[C@@]5(C)CC[C@H](OC(=O)[C@H]6C[C@@H](C(=O)O)C6(C)C)C(C)(C)[C@@H]5CC[C@]43C)[C@@H]12 [Compound 27, (1R,3S)-3-((((1R,3aS,5aR,5bR,7aR,9S,11aR,11bR,13aR,13bR)-3a-((2S,4R)-4-(2-methoxyethoxy)-2-(4-phenyl-1-(2-(pyrrolidin-1-yl)ethyl)-1H-imidazol-2-yl)pyrrolidine-1-carbonyl)-5a,5b,8,8,11a-pentamethyl-1-(prop-1-en-2-yl)icosahydro-1H-cyclopenta[a]chrysen-9-yl)oxy)carbonyl)-2,2-dimethylcyclobutane-1-carboxylic acid] the inhibition at 0.01 µM [1] was 0%, the inhibition at 0.1 µM [1] was 100% and the inhibition at 1 µM [1] was 100%. For the same molecule, the IC50 [1] was 34 nM, the viability at 4 days, 0.01 µM [2] was 60% and the viability at 4 days, 0.1 µM [2] was 24%. The viability at 4 days, 1 µM [2] was 8%, the AUC(0-t) [3] was 355 µg·h/mL and the Cmax [3] was 10900 ng/mL.
Work on C=C(C)[C@@H]1CC[C@]2(C(=O)N3C[C@H](OCCOC)C[C@H]3c3nc(-c4cccc(F)c4)cn3CCN3CCCC3)CC[C@]3(C)[C@H](CC[C@@H]4[C@@]5(C)CC[C@H](OC(=O)[C@H]6C[C@@H](C(=O)O)C6(C)C)C(C)(C)[C@@H]5CC[C@]43C)[C@@H]12 [Compound 28, (1R,3S)-3-((((1R,3aS,5aR,5bR,7aR,9S,11aR,11bR,13aR,13bR)-3a-((2S,4R)-2-(4-(3-fluorophenyl)-1-(2-(pyrrolidin-1-yl)ethyl)-1H-imidazol-2-yl)-4-(2-methoxyethoxy)pyrrolidine-1-carbonyl)-5a,5b,8,8,11a-pentamethyl-1-(prop-1-en-2-yl)icosahydro-1H-cyclopenta[a]chrysen-9-yl)oxy)carbonyl)-2,2-dimethylcyclobutane-1-carboxylic acid] yielded an inhibition at 0.01 µM [1] of 13%, an inhibition at 0.1 µM [1] of 98% and an inhibition at 1 µM [1] of 100%. For the same molecule, the IC50 [1] was 39.6 nM, the viability at 4 days, 0.01 µM [2] was 65% and the viability at 4 days, 0.1 µM [2] was 19%. It also gave a viability at 4 days, 1 µM [2] of 6%, an AUC(0-t) [3] of 293 µg·h/mL and a Cmax [3] of 7300 ng/mL.
Molecule C=C(C)[C@@H]1CC[C@]2(C(=O)N3CCC[C@H]3c3nc4ccccc4n3CCN(C)C)CC[C@]3(C)[C@H](CC[C@@H]4[C@@]5(C)CC[C@H](OC(=O)[C@H]6C[C@@H](C(=O)O)C6(C)C)C(C)(C)[C@@H]5CC[C@]43C)[C@@H]12 [Compound 29, (1R,3S)-3-((((1R,3aS,5aR,5bR,7aR,9S,11aR,11bR,13aR,13bR)-3a-((S)-2-(1-(2-(dimethylamino)ethyl)-1H-benzo[d]imidazol-2-yl)pyrrolidine-1-carbonyl)-5a,5b,8,8,11a-pentamethyl-1-(prop-1-en-2-yl)icosahydro-1H-cyclopenta[a]chrysen-9-yl)oxy)carbonyl)-2,2-dimethylcyclobutane-1-carboxylic acid] has an inhibition at 0.01 µM [1] of 0%, an inhibition at 0.1 µM [1] of 100% and an inhibition at 1 µM [1] of 100%. For the same molecule, the IC50 [1] was 9.76 nM, the viability at 4 days, 0.01 µM [2] was 31% and the viability at 4 days, 0.1 µM [2] was 1%. It also gave a viability at 4 days, 1 µM [2] of 5%, an AUC(0-t) [3] of 491 µg·h/mL and a Cmax [3] of 14900 ng/mL.
Molecule C=C(C)[C@@H]1CC[C@]2(C(=O)N3CCC[C@H]3c3nc4ccccc4n3CCN3CCCC3)CC[C@]3(C)[C@H](CC[C@@H]4[C@@]5(C)CC[C@H](OC(=O)[C@H]6C[C@@H](C(=O)O)C6(C)C)C(C)(C)[C@@H]5CC[C@]43C)[C@@H]12 [Compound 30, (1R,3S)-2,2-dimethyl-3-((((1R,3aS,5aR,5bR,7aR,9S,11aR,11bR,13aR,13bR)-5a,5b,8,8,11a-pentamethyl-1-(prop-1-en-2-yl)-3a-((S)-2-(1-(2-(pyrrolidin-1-yl)ethyl)-1H-benzo[d]imidazol-2-yl)pyrrolidine-1-carbonyl)icosahydro-1H-cyclopenta[a]chrysen-9-yl)oxy)carbonyl)cyclobutane-1-carboxylic acid] has an inhibition at 0.01 µM [1] of 71%, an inhibition at 0.1 µM [1] of 100% and an inhibition at 1 µM [1] of 100%. For the same molecule, the IC50 [1] was 10.2 nM, the viability at 4 days, 0.01 µM [2] was 33% and the viability at 4 days, 0.1 µM [2] was 3%. For the same molecule, the viability at 4 days, 1 µM [2] was 5%, the AUC(0-t) [3] was 546 µg·h/mL and the Cmax [3] was 14800 ng/mL.

Source: patent US9868758B2, “Betulinic proline imidazole derivatives as HIV inhibitors” (HETERO LABS LIMITED, priority 2014, dated 2018)
